Results as given in patent publication US11629155B2, “Small molecule antagonist compound TAC5 series having toll-like receptor 3/7/8/9 inhibitory function” (AJOU UNIVERSITY INDUSTRY-ACADEMIC COOPERATION FOUNDATION, priority 2018, dated 2023).
Entries after “also recorded” stand apart in the source; their conditions may differ.

Assays:
TLR1/2 = target: T1, TLR1/2 (Homo sapiens, UniProt O60603+Q15399); assay: Pam3CSK4-induced TNF-α secretion (ELISA) in THP1-derived macrophages; format: cell-based; details: 1 to 50 μM, FIG. 4D
T1 construct: endogenous in cells; host or cells: THP1-derived macrophages (PMA-differentiated)

TLR8 = target: T2, TLR8 (Homo sapiens, UniProt Q9NR97); assay: TL8, R848 or CL075-induced TNF-α or IL-6 secretion in THP1-derived macrophages; format: cell-based; details: TL8, R848 or CL075, dose-dependent manner, FIGS. 4E-4G
T2 construct: endogenous in cells; host or cells: THP1-derived macrophages (PMA-differentiated)
T2 sequence (Q9NR97 27-1041): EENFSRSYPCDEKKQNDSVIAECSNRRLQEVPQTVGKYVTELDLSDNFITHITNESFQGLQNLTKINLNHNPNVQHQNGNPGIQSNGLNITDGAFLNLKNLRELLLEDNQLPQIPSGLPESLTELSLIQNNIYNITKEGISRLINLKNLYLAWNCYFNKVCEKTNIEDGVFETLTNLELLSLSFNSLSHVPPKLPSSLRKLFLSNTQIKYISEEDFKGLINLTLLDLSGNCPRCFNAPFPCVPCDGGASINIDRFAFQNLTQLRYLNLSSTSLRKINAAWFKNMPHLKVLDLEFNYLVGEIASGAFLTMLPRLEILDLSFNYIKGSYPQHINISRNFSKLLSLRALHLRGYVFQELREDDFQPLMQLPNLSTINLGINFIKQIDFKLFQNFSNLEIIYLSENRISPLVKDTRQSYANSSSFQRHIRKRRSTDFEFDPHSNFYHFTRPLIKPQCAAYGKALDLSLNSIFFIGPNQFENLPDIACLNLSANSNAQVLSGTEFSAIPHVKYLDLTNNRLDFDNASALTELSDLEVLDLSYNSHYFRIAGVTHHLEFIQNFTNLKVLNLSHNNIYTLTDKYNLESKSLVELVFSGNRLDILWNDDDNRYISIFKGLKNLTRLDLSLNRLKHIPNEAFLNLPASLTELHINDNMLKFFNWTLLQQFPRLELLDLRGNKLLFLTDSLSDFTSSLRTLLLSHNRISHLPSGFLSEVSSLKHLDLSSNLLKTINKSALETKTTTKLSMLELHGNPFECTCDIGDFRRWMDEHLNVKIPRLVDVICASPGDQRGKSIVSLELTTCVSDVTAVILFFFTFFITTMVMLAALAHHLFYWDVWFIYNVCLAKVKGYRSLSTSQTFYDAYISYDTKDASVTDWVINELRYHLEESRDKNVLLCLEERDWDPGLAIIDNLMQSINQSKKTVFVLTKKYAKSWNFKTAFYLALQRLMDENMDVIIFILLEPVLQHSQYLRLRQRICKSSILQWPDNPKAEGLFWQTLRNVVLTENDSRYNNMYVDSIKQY

MARC/lpr mice = assay: SLE mouse model (MARC/lpr mice); format: in vivo
Experimental: QRT-PCR analysis was performed to detect the expression levels of specific genes in lymph nodes, spleen and kidney. Total RNA was isolated from lymph nodes, spleen and kidneys of 16-week-old mice using TRI reagent (Sigma-Aldrich, Co.). RNA was applied to qRT-PCR based on SYBR green (Enzo Life Sciences, Inc., Farmingdale, N.Y., USA). The following primers for the marker gene were used: mTLR7, 5′-ATGTGGACACGGAAGAGACAA-3′(SEQ ID NO: 1) and 5′-GGT AAG GGT AAG ATT GGT G-3′(SEQ ID NO: 2); mTLR9, 5′-ATGGTTCTCCGTCGAAGGACT-3′ (SEQ ID NO: 3) and 5′-GAG GCT TCA GCT CAC AGG G-3′(SEQ ID NO: 4); mIL-6, 5′-GAGGATACCACTCCCAACAGACC-3′(SEQ ID NO: 5) and 5′-AAGTGCATCATCGTTGTTCATACA-3′(SEQ ID NO: 6); mMyd88, 5′-CACCTGTGTCTGGTCCATTG-3′(SEQ ID NO: 7) and 5′-CTGTTGGACACCTGGAGACA-3′(SEQ ID NO: 8); mIL-17, 5′-GCT CCA GAA GGC CCT CAG A-3′ (SEQ ID NO: 9) and 5′-AGC TTT CCC TCC GCA TTG A-3′(SEQ ID NO: 10); mGAPDH, 5′-CTCAACACGGGAAACCTCAC-3′ (SEQ ID NO: 11) and 5′-CGCTCCACCAACTAAGAACG-3′(SEQ ID NO: 12) (Bioneer, Daejeon, Korea). Quantified individual RNA expression levels were normalized to GAPDH and expressed as RNA expression levels relative to the corresponding wild-type mice.
The therapeutic potential of TAC5-a on systemic autoimmunity was further determined by intraperitoneally injecting 10 nmol/g (daily dosage) of TAC5-a (dissolved in 1% dimethylsulfoxide [DMSO]) into MARC/lpr mice for 11 days. This inhibitor clearly influenced mouse lymphatic proliferation. […] The production of anti-dsDNA autoantibodies was kept low (FIG. 6B), and serum antinuclear antibodies (ANAs) were reduced by treatment with inhibitors (FIG. 6C). The detection of certain proteins, such as albumin, in the urine serves as a marker for a kidney pathology called glomerulonephritis (GN), which is caused by inflammation of the glomerulus. […] Then, the effect of TAC5-a on the relative expression behaviors of specific genes in lymph nodes, spleen and kidneys at the transcription level was confirmed.

T1 sequence (Q15399 25-786): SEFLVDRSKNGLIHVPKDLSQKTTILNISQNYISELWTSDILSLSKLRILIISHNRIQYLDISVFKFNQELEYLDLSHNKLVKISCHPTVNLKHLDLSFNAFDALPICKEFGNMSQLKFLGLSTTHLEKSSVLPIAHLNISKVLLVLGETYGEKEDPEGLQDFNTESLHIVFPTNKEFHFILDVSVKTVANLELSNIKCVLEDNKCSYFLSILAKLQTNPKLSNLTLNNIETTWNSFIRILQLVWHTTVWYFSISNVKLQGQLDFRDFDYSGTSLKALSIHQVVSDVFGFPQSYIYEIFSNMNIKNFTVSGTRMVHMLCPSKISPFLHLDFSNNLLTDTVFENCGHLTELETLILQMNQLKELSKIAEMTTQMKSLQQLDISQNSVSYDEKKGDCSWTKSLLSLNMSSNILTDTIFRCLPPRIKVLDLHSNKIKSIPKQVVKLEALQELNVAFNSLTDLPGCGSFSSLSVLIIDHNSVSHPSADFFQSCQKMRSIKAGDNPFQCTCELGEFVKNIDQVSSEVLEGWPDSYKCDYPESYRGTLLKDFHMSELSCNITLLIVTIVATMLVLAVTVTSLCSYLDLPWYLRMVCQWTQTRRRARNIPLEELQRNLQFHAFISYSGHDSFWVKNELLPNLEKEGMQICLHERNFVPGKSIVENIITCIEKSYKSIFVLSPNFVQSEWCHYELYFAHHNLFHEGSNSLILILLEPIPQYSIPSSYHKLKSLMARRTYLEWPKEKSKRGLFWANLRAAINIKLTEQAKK
T1 sequence (O60603 21-784): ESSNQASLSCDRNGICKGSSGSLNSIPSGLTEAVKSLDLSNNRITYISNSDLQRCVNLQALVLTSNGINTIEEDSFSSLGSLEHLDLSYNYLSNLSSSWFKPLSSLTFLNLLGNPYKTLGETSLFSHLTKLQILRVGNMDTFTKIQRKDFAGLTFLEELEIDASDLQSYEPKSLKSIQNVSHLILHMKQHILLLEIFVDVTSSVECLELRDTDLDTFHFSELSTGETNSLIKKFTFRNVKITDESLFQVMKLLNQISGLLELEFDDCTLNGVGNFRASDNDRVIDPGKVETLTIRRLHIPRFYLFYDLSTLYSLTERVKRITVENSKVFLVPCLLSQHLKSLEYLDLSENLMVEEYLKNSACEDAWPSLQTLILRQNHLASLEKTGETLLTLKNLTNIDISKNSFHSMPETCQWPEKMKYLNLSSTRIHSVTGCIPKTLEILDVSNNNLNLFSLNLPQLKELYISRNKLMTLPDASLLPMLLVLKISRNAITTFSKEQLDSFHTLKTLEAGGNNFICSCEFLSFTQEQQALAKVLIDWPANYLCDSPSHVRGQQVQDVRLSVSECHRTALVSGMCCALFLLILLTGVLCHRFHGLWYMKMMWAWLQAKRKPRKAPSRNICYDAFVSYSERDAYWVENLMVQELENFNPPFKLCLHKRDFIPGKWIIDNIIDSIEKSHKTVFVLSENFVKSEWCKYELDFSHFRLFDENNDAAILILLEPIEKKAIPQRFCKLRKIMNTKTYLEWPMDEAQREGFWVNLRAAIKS

- TLR1/2 (Pam3CSK4)-mediated TNF-α secretion (TLR1/2): did not block
- TLR8-mediated TNF-α or IL-6 secretion (TLR8): significantly inhibited
Structure (SMILES): Nc1cccc(COc2cccnc2N)c1 [TAC5-a, 3-((3-aminobenzyl)oxy)pyridin-2-amine]
- production of anti-dsDNA autoantibodies (MARC/lpr mice; 10 nmol/g daily i.p. for 11 days, FIG. 6B): kept low
- serum antinuclear antibodies (ANAs) (MARC/lpr mice; 10 nmol/g daily i.p. for 11 days, FIG. 6C): reduced
- content of urine albumin (MARC/lpr mice; 10 nmol/g daily i.p. for 11 days, FIG. 6D): significantly reduced
- lymph node swelling, appearance evaluation or size decrease (MARC/lpr mice; 10 nmol/g daily intraperitoneally for 11 days, FIG. 6A): clearly observed; also recorded: significantly prevented
- IL-6 mRNA level in lymph nodes (qRT-PCR) (MARC/lpr mice; FIGS. 6E to 6G): significantly reduced
- IL-17 mRNA level in lymph nodes (qRT-PCR) (MARC/lpr mice; FIGS. 6E to 6G): significantly reduced
- TLR7 mRNA level in lymph nodes (qRT-PCR) (MARC/lpr mice; FIGS. 6E to 6G): significantly reduced
